Literature values in PubChem BioAssay AID1259409 (Chemical Carcinogenesis Research Information System (CCRIS), 2018).

System: rodent chemically induced tumor inhibition, incidence and multiplicity
Assay: CCRIS tumor inhibitor studies
Conditions: Dose [Inhibitor]: 0, Route [Inhibitor]: ORAL

COc1ccc2c(c1)c(CC(=O)O)c(C)n2C(=O)c1ccc(Cl)cc1
tumour outcome (control, treated, inhibition, significance) (Carcinogen: N-BUTYL-N-(4-HYDROXYBUTYL)NITROSAMINE, 3817-11-6, 20 PPM IN DRINKING WATER FOR 40 WK BEGINNING POST CARCINOGEN TREATMENT (STUDY DURATION: 44 WK), Species: RAT, Strain/Sex: F344/MALE, Target Tissue: Type of Lesion: URINARY BLADDER: PAPILLOMA, Dose [Carcinogen]: 0.05% IN DRINKING WATER FOR 4 WK, Promoter: BUTYLATED HYDROXYANISOLE, 25013-16-5): 14/15 (93%), 4/15 (27%), 71%, p<0.01
tumour outcome (control, treated, inhibition, significance) (Carcinogen: N-BUTYL-N-(4-HYDROXYBUTYL)NITROSAMINE, 3817-11-6, 20 PPM IN DRINKING WATER FOR 40 WK BEGINNING POST CARCINOGEN TREATMENT (STUDY DURATION: 44 WK), Species: RAT, Strain/Sex: F344/MALE, Target Tissue: Type of Lesion: URINARY BLADDER: PAPILLOMA, Dose [Carcinogen]: 0.05% IN DRINKING WATER FOR 4 WK, Promoter: SODIUM L-ASCORBATE, 134-03-2): 15/15 (100%), 9/15 (60%), 40%, p<0.01
tumour outcome (control, treated, inhibition, significance) (Carcinogen: N-BUTYL-N-(4-HYDROXYBUTYL)NITROSAMINE, 3817-11-6, 20 PPM IN DRINKING WATER FOR 40 WK BEGINNING POST CARCINOGEN TREATMENT (STUDY DURATION: 44 WK), Species: RAT, Strain/Sex: F344/MALE, Target Tissue: Type of Lesion: URINARY BLADDER: TRANSITIONAL CELL CARCINOMA, Dose [Carcinogen]: 0.05% IN DRINKING WATER FOR 4 WK, Promoter: BUTYLATED HYDROXYANISOLE, 25013-16-5): 10/15 (67%), 1/15 (7%), 90%, p<0.01
tumour outcome (control, treated, inhibition, significance) (Carcinogen: N-BUTYL-N-(4-HYDROXYBUTYL)NITROSAMINE, 3817-11-6, 20 PPM IN DRINKING WATER FOR 40 WK BEGINNING POST CARCINOGEN TREATMENT (STUDY DURATION: 44 WK), Species: RAT, Strain/Sex: F344/MALE, Target Tissue: Type of Lesion: URINARY BLADDER: TRANSITIONAL CELL CARCINOMA, Dose [Carcinogen]: 0.05% IN DRINKING WATER FOR 4 WK, Promoter: SODIUM L-ASCORBATE, 134-03-2): 15/15 (100%), 5/15 (33%), 67%, p<0.01
tumour outcome (control, treated, inhibition, significance) (Carcinogen: N-BUTYL-N-(4-HYDROXYBUTYL)NITROSAMINE, 53609-64-6, 7.5 MG/KG OF DIET STARTING 1 WK PRIOR TO CARCINOGEN DOSE FROM 49 D OF AGE AND CONTINUING FOR DURATION OF STUDY (STUDY, Species: MOUSE, Strain/Sex: BDF/MALE, Target Tissue: Type of Lesion: BLADDER: CARCINOMA, Dose [Carcinogen]: 7.5 MG IN 0.1 ML OF ETHANOL:WATER (20:80) 1/WK FOR 8 WK, Promoter: NONE USED): 14%, 4%, 71%, p<0.05
tumour outcome (control, treated, inhibition, significance) (Carcinogen: N-BUTYL-N-(4-HYDROXYBUTYL)NITROSAMINE, 53609-64-6, 7.5 MG/KG OF DIET STARTING 1 WK PRIOR TO CARCINOGEN DOSE FROM 49 D OF AGE AND CONTINUING FOR DURATION OF STUDY (STUDY, Species: MOUSE, Strain/Sex: BDF/MALE, Target Tissue: Type of Lesion: BLADDER: PAPILLOMA, Dose [Carcinogen]: 7.5 MG IN 0.1 ML OF ETHANOL:WATER (20:80) 1/WK FOR 8 WK, Promoter: NONE USED): 13%, 1%, 92%, p<0.01
tumour outcome (control, treated, inhibition, significance) (Carcinogen: N-BUTYL-N-(4-HYDROXYBUTYL)NITROSAMINE, 53609-64-6, 15 MG/KG OF DIET STARTING 1 WK PRIOR TO CARCINOGEN DOSE AT 49 D OF AGE AND CONTINUING FOR DURATION OF STUDY (STUDY DU, Species: MOUSE, Strain/Sex: BDF/MALE, Target Tissue: Type of Lesion: BLADDER: CARCINOMA, Dose [Carcinogen]: 7.5 MG IN 0.1 ML OF ETHANOL:WATER (20:80) 1/WK FOR 8 WK, Promoter: NONE USED): 14%, 0%, 100%, p<0.01
tumour outcome (control, treated, inhibition, significance) (Carcinogen: N-BUTYL-N-(4-HYDROXYBUTYL)NITROSAMINE, 53609-64-6, 15 MG/KG OF DIET STARTING 1 WK PRIOR TO CARCINOGEN DOSE AT 49 D OF AGE AND CONTINUING FOR DURATION OF STUDY (STUDY DU, Species: MOUSE, Strain/Sex: BDF/MALE, Target Tissue: Type of Lesion: BLADDER: PAPILLOMA, Dose [Carcinogen]: 7.5 MG IN 0.1 ML OF ETHANOL:WATER (20:80) 1/WK FOR 8 WK, Promoter: NONE USED): 13%, 0%, 100%, p<0.01
tumour outcome (control, treated, inhibition, significance) (Carcinogen: N-ETHYL-N-NITROSOUREA, 759-73-9, 20 MG/L IN DRINKING WATER FOR 12 MO ADMINISTERED TO OFFSPRING OF CARCINOGEN-TREATED MOTHERS (STUDY DURATION: 12 MO), Species: RAT, Strain/Sex: ALBINO/MALE, FEMALE, Target Tissue: Type of Lesion: BRAIN: TUMOR, Dose [Carcinogen]: 75 MG/KG BW ADMINISTERED INTRAPERITONEALLY TO MOTHERS 21 D POST CONCEPTION, Promoter: NONE USED): 36/42 (86%), 14/25 (56%), 35%, p<0.05
tumour outcome (control, treated, inhibition, significance) (Carcinogen: N-ETHYL-N-NITROSOUREA, 759-73-9, 20 MG/L IN DRINKING WATER FOR 12 MO ADMINISTERED TO OFFSPRING OF CARCINOGEN-TREATED MOTHERS (STUDY DURATION: 12 MO), Species: RAT, Strain/Sex: ALBINO/MALE, FEMALE, Target Tissue: Type of Lesion: KIDNEY: TUMOR, Dose [Carcinogen]: 75 MG/KG BW ADMINISTERED INTRAPERITONEALLY TO MOTHERS 21 D POST CONCEPTION, Promoter: NONE USED): 19/42 (45%), 8/25 (32%), 29%, not significant
